“And” between values parts separate entries of the source, which are not always exact repeats. Identical values can stand only once.
Assays:
Experiment in all cases: biochemical
Assay type in all cases: binding
SfurOBP1 = SfurOBP1 (Sogatella furcifera, UniProt V5T8N5); settings: for Fluorescence competitive binding assay, fluorescence intensity: OBP1, three replicate columns
Procedure: (§1) Thirty-six rice odorants ([He et al., 2014]; [Wang et al., 2017]) and 1-N-phenyl-naphthylamine (1-NPN) were purchased from Sigma-Aldrich (St Louis, MO, USA). These odorants and 1-NPN were dissolved in high-performance liquid chromatography (HPLC) purify grade methanol for 1.0 mM as work solution.
(§2) Fluorescence competitive binding assays were performed on Tecan Spark 10M (Tecan Group Ltd., Männedorf, Switzerland) with the F96 Black ELIAS Plate (Sangon) ([Khuhro et al., 2017]; [Liu et al., 2017]). The solutions were excited at 337 nm and emission spectra were recorded between 390 and 490 nm. First, to test the binding constants of 1-NPN to the SfurOBPs, a 2.0 µM solution of protein in 50 mM Tris-HCl (pH = 7.4) was titrated with 1 mM 1-NPN to achieve virous concentrations. Next, the competitive binding of each odorant was measured using the 1-NPN as fluorescent reporter and odorant as competitor. The concentrations of protein and 1-NPN were both 2.0 µM, the odorant added after protein and 1-NPN added into the well of ELIAS Plate for 2 min. The final concentrations of each competitor were 2, 4, 6, 8, 10, 12, 14, 16, 18 and 20 µM. After 2 min of odorant added, the fluorescence intensity was measured and recorded. The volume of mixed solution in each well was maintained at 250 µL. Each interaction was performed in triplicates.
(§3) GraphPad Prism 7.0 software (GraphPad Software, Inc., La Jolla, CA, USA) was used to calculated and generated the binding constants (K1−NPN) of 1-NPN to SfurOBPs and relative Scatchard plots ([Ban et al., 2003]; [Li et al., 2016]). Dissociation constant (Ki) of each odorant to SfurOBP was computed from the corresponding IC50 value (the half maximal inhibitory concentration), using the following equation: Ki=[IC50]/(1 + [1-NPN]/K1−NPN), where [1-NPN] is the free concentration of 1-NPN and K1−NPN is the dissociation constant of the complex protein/1-NPN.

SfurOBP11 = SfurOBP11 (Sogatella furcifera, UniProt V5T6E3)
Sequence of SfurOBP11 (V5T6E3 entry or part of it): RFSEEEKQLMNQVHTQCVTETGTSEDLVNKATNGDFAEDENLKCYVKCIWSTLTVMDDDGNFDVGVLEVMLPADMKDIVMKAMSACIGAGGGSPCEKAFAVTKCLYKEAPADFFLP
Procedure: as §1, §2, §3

SfurOBP2 = SfurOBP2 (Sogatella furcifera, UniProt V5T759)
Sequence of SfurOBP2 (V5T759 entry or part of it): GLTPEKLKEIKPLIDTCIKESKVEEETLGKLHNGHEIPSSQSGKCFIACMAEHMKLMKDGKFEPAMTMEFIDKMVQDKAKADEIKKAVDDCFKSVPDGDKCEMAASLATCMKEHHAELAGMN
Procedure: as §1, §2, §3

SfurOBP3 = SfurOBP3 (Sogatella furcifera, UniProt V5T818); settings: for Fluorescence competitive binding assay, fluorescence intensity: OBP3, three replicate columns
Sequence of SfurOBP3 (V5T818 entry or part of it): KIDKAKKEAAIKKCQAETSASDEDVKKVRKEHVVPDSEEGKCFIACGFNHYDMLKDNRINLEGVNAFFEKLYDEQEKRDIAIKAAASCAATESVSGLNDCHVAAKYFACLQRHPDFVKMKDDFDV
Procedure: as §1, §2, §3

Sequence of SfurOBP1 (V5T8N5 entry or part of it): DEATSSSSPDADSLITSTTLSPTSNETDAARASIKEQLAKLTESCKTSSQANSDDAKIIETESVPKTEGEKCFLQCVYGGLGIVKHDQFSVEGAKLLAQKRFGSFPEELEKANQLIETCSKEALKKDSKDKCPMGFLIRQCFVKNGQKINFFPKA

SMILES: C[C@@H]1CC[C@H]2C(C)(C)[C@H]3C[C@@]12CC[C@@]3(C)O [cedrol]
- IC50 (SfurOBP1): > 20 µM
- Fluorescence competitive binding assay, fluorescence intensity (SfurOBP1; ligand concentration 2 (μM)): 6995 and 7876 and 8408
- Fluorescence competitive binding assay, fluorescence intensity (SfurOBP1; ligand concentration 4 (μM)): 8498 and 11154 and 11504
- Fluorescence competitive binding assay, fluorescence intensity (SfurOBP1; ligand concentration 6 (μM)): 10601 and 9220 and 11976
- Fluorescence competitive binding assay, fluorescence intensity (SfurOBP1; ligand concentration 8 (μM)): 9019 and 11150 and 9994
- Fluorescence competitive binding assay, fluorescence intensity (SfurOBP1; ligand concentration 10 (μM)): 10329 and 10734 and 11532
- Fluorescence competitive binding assay, fluorescence intensity (SfurOBP1; ligand concentration 12 (μM)): 12388 and 11952 and 13123
- Fluorescence competitive binding assay, fluorescence intensity (SfurOBP1; ligand concentration 14 (μM)): 12489 and 14285 and 14049
- Fluorescence competitive binding assay, fluorescence intensity (SfurOBP1; ligand concentration 16 (μM)): 13812 and 12078 and 13153
- Fluorescence competitive binding assay, fluorescence intensity (SfurOBP1; ligand concentration 18 (μM)): 15290 and 17034 and 15790
- Fluorescence competitive binding assay, fluorescence intensity (SfurOBP1; ligand concentration 20 (μM)): 14831 and 15054 and 15511
- IC50 (SfurOBP11): > 20 µM
- Fluorescence intensity, fluorescence competitive binding assay, OBP11 (SfurOBP11; ligand concentration 2, replicate 1): 32664
- Fluorescence intensity, fluorescence competitive binding assay, OBP11 (SfurOBP11; ligand concentration 2, replicate 2): 32061
- Fluorescence intensity, fluorescence competitive binding assay, OBP11 (SfurOBP11; ligand concentration 2, replicate 3): 32191
- Fluorescence intensity, fluorescence competitive binding assay, OBP11 (SfurOBP11; ligand concentration 4, replicate 1): 30812
- Fluorescence intensity, fluorescence competitive binding assay, OBP11 (SfurOBP11; ligand concentration 4, replicate 2): 37566
- Fluorescence intensity, fluorescence competitive binding assay, OBP11 (SfurOBP11; ligand concentration 4, replicate 3): 35078
- Fluorescence intensity, fluorescence competitive binding assay, OBP11 (SfurOBP11; ligand concentration 6, replicate 1): 34551
- Fluorescence intensity, fluorescence competitive binding assay, OBP11 (SfurOBP11; ligand concentration 6, replicate 2): 34452
- Fluorescence intensity, fluorescence competitive binding assay, OBP11 (SfurOBP11; ligand concentration 6, replicate 3): 36785
- Fluorescence intensity, fluorescence competitive binding assay, OBP11 (SfurOBP11; ligand concentration 8, replicate 1): 32906
- Fluorescence intensity, fluorescence competitive binding assay, OBP11 (SfurOBP11; ligand concentration 8, replicate 2): 35488
- Fluorescence intensity, fluorescence competitive binding assay, OBP11 (SfurOBP11; ligand concentration 8, replicate 3): 34811
- Fluorescence intensity, fluorescence competitive binding assay, OBP11 (SfurOBP11; ligand concentration 10, replicate 1): 34631
- Fluorescence intensity, fluorescence competitive binding assay, OBP11 (SfurOBP11; ligand concentration 10, replicate 2): 35572
- Fluorescence intensity, fluorescence competitive binding assay, OBP11 (SfurOBP11; ligand concentration 10, replicate 3): 36351
- Fluorescence intensity, fluorescence competitive binding assay, OBP11 (SfurOBP11; ligand concentration 12, replicate 1): 32777
- Fluorescence intensity, fluorescence competitive binding assay, OBP11 (SfurOBP11; ligand concentration 12, replicate 2): 37222
- Fluorescence intensity, fluorescence competitive binding assay, OBP11 (SfurOBP11; ligand concentration 12, replicate 3): 35927
- Fluorescence intensity, fluorescence competitive binding assay, OBP11 (SfurOBP11; ligand concentration 14, replicate 1): 33134
- Fluorescence intensity, fluorescence competitive binding assay, OBP11 (SfurOBP11; ligand concentration 14, replicate 2): 35392
- Fluorescence intensity, fluorescence competitive binding assay, OBP11 (SfurOBP11; ligand concentration 14, replicate 3): 35226
- Fluorescence intensity, fluorescence competitive binding assay, OBP11 (SfurOBP11; ligand concentration 16, replicate 1): 32933
- Fluorescence intensity, fluorescence competitive binding assay, OBP11 (SfurOBP11; ligand concentration 16, replicate 2): 34203
- Fluorescence intensity, fluorescence competitive binding assay, OBP11 (SfurOBP11; ligand concentration 16, replicate 3): 33568
- Fluorescence intensity, fluorescence competitive binding assay, OBP11 (SfurOBP11; ligand concentration 18, replicate 1): 37284
- Fluorescence intensity, fluorescence competitive binding assay, OBP11 (SfurOBP11; ligand concentration 18, replicate 2): 38034
- Fluorescence intensity, fluorescence competitive binding assay, OBP11 (SfurOBP11; ligand concentration 18, replicate 3): 36646
- Fluorescence intensity, fluorescence competitive binding assay, OBP11 (SfurOBP11; ligand concentration 20, replicate 1): 39273
- Fluorescence intensity, fluorescence competitive binding assay, OBP11 (SfurOBP11; ligand concentration 20, replicate 2): 38740
- Fluorescence intensity, fluorescence competitive binding assay, OBP11 (SfurOBP11; ligand concentration 20, replicate 3): 33015
- IC50 (SfurOBP2): > 20 µM
- Fluorescence competitive binding assay, OBP2 (raw fluorescence reading) (SfurOBP2; ligand concentration 2 (unit not given), replicate column 1 of 3): 24497
- Fluorescence competitive binding assay, OBP2 (raw fluorescence reading) (SfurOBP2; ligand concentration 2 (unit not given), replicate column 2 of 3): 23498
- Fluorescence competitive binding assay, OBP2 (raw fluorescence reading) (SfurOBP2; ligand concentration 2 (unit not given), replicate column 3 of 3): 23591
- Fluorescence competitive binding assay, OBP2 (raw fluorescence reading) (SfurOBP2; ligand concentration 4 (unit not given), replicate column 1 of 3): 27085
- Fluorescence competitive binding assay, OBP2 (raw fluorescence reading) (SfurOBP2; ligand concentration 4 (unit not given), replicate column 2 of 3): 27496
- Fluorescence competitive binding assay, OBP2 (raw fluorescence reading) (SfurOBP2; ligand concentration 4 (unit not given), replicate column 3 of 3): 25040
- Fluorescence competitive binding assay, OBP2 (raw fluorescence reading) (SfurOBP2; ligand concentration 6 (unit not given), replicate column 1 of 3): 30107
- Fluorescence competitive binding assay, OBP2 (raw fluorescence reading) (SfurOBP2; ligand concentration 6 (unit not given), replicate column 2 of 3): 26969
- Fluorescence competitive binding assay, OBP2 (raw fluorescence reading) (SfurOBP2; ligand concentration 6 (unit not given), replicate column 3 of 3): 25579
- Fluorescence competitive binding assay, OBP2 (raw fluorescence reading) (SfurOBP2; ligand concentration 8 (unit not given), replicate column 1 of 3): 26802
- Fluorescence competitive binding assay, OBP2 (raw fluorescence reading) (SfurOBP2; ligand concentration 8 (unit not given), replicate column 2 of 3): 26446
- Fluorescence competitive binding assay, OBP2 (raw fluorescence reading) (SfurOBP2; ligand concentration 8 (unit not given), replicate column 3 of 3): 25979
- Fluorescence competitive binding assay, OBP2 (raw fluorescence reading) (SfurOBP2; ligand concentration 10 (unit not given), replicate column 1 of 3): 26972
- Fluorescence competitive binding assay, OBP2 (raw fluorescence reading) (SfurOBP2; ligand concentration 10 (unit not given), replicate column 2 of 3): 25158
- Fluorescence competitive binding assay, OBP2 (raw fluorescence reading) (SfurOBP2; ligand concentration 10 (unit not given), replicate column 3 of 3): 26522
- Fluorescence competitive binding assay, OBP2 (raw fluorescence reading) (SfurOBP2; ligand concentration 12 (unit not given), replicate column 1 of 3): 24638
- Fluorescence competitive binding assay, OBP2 (raw fluorescence reading) (SfurOBP2; ligand concentration 12 (unit not given), replicate column 2 of 3): 24959
- Fluorescence competitive binding assay, OBP2 (raw fluorescence reading) (SfurOBP2; ligand concentration 12 (unit not given), replicate column 3 of 3): 25011
- Fluorescence competitive binding assay, OBP2 (raw fluorescence reading) (SfurOBP2; ligand concentration 14 (unit not given), replicate column 1 of 3): 25754
- Fluorescence competitive binding assay, OBP2 (raw fluorescence reading) (SfurOBP2; ligand concentration 14 (unit not given), replicate column 2 of 3): 26325
- Fluorescence competitive binding assay, OBP2 (raw fluorescence reading) (SfurOBP2; ligand concentration 14 (unit not given), replicate column 3 of 3): 24806
- Fluorescence competitive binding assay, OBP2 (raw fluorescence reading) (SfurOBP2; ligand concentration 16 (unit not given), replicate column 1 of 3): 22837
- Fluorescence competitive binding assay, OBP2 (raw fluorescence reading) (SfurOBP2; ligand concentration 16 (unit not given), replicate column 2 of 3): 21773
- Fluorescence competitive binding assay, OBP2 (raw fluorescence reading) (SfurOBP2; ligand concentration 16 (unit not given), replicate column 3 of 3): 21108
- Fluorescence competitive binding assay, OBP2 (raw fluorescence reading) (SfurOBP2; ligand concentration 18 (unit not given), replicate column 1 of 3): 27379
- Fluorescence competitive binding assay, OBP2 (raw fluorescence reading) (SfurOBP2; ligand concentration 18 (unit not given), replicate column 2 of 3): 25169
- Fluorescence competitive binding assay, OBP2 (raw fluorescence reading) (SfurOBP2; ligand concentration 18 (unit not given), replicate column 3 of 3): 23516
- Fluorescence competitive binding assay, OBP2 (raw fluorescence reading) (SfurOBP2; ligand concentration 20 (unit not given), replicate column 1 of 3): 25091
- Fluorescence competitive binding assay, OBP2 (raw fluorescence reading) (SfurOBP2; ligand concentration 20 (unit not given), replicate column 2 of 3): 24420
- Fluorescence competitive binding assay, OBP2 (raw fluorescence reading) (SfurOBP2; ligand concentration 20 (unit not given), replicate column 3 of 3): 23245
- IC50 (SfurOBP3): > 20 µM
- Fluorescence competitive binding assay, fluorescence intensity (SfurOBP3; ligand concentration 2): 55754 and 49842 and 56462
- Fluorescence competitive binding assay, fluorescence intensity (SfurOBP3; ligand concentration 4): 68851 and 68657 and 83563
- Fluorescence competitive binding assay, fluorescence intensity (SfurOBP3; ligand concentration 6): 77285 and 86181 and 100023
- Fluorescence competitive binding assay, fluorescence intensity (SfurOBP3; ligand concentration 8): 86444 and 86480 and 86528
- Fluorescence competitive binding assay, fluorescence intensity (SfurOBP3; ligand concentration 10): 98647 and 101699 and 124352
- Fluorescence competitive binding assay, fluorescence intensity (SfurOBP3; ligand concentration 12): 107439 and 105795 and 90567
- Fluorescence competitive binding assay, fluorescence intensity (SfurOBP3; ligand concentration 14): 124768 and 101594 and 116276
- Fluorescence competitive binding assay, fluorescence intensity (SfurOBP3; ligand concentration 16): 81951 and 95706 and 104699
- Fluorescence competitive binding assay, fluorescence intensity (SfurOBP3; ligand concentration 18): 130597 and 114825 and 98253
- Fluorescence competitive binding assay, fluorescence intensity (SfurOBP3; ligand concentration 20): 111183 and 106493 and 98789

From article PMC6409085, “Three odorant-binding proteins are involved in the behavioral response of Sogatella furcifera to rice plant volatiles” (PeerJ, 2019)
